Laboratory results published in patent US9212168B2 (priority 2011, dated 2015).

Test system: HCV genotype 1a replicon
Assay: HCV genotype 1a replicon assay (NS3 protease activity readout)
Format: cell-based, hepatitis C virus
Conditions: HCV genotype 1a replicon
Method in brief: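 Genotype 1a subgenomic replicon cells (APC89, Huh7.5) were treated with compound dose-responses in G418-free medium, 0.5% DMSO final, for 48 or 72 hours at 37° C. Lysate NS3/4a protease activity measured with 15 μM FRET substrate, 20 min at 37° C (ex 340/em 509 nm); EC50 by 4-parameter fit.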

Row | Structure (SMILES) | Genotype 1a
1 | COC(=O)N[C@H](C(=O)N1C[C@@H](C)C[C@H]1c1nc(-c2ccc(-c3cc(Cl)c(C(=O)Nc4ccc(N5CCN(C(=O)C(C)(C)C)C[C@H]5C)nc4)cc3OC(F)(F)F)cc2)c(Cl)[nH]1)C(C)C [Example 4-47] | C (C represents pEC50 between and 9 and about 10, (EC50 between 1 nM and 0.1 nM))
2 | CNC(=O)N1C[C@@H](C)N(c2ccc(C(=O)Nc3cc(OC(F)(F)F)c(-c4ccc(-c5c[nH]c([C@@H]6C[C@H](C)CN6C(=O)[C@@H](NC(=O)OC)C(C)(C)C)n5)cc4)cc3Cl)cn2)C[C@@H]1C [Example 7-1] | D (D represents pEC50>10 (EC50<0.1 nM))
3 | CNC(=O)N1C[C@@H](C)N(c2ccc(C(=O)Nc3cc(OC(F)(F)F)c(-c4ccc(-c5c[nH]c([C@@H]6C[C@H](C)CN6C(=O)[C@H](NC(=O)OC)C(C)(C)C)n5)cc4)cc3Cl)cn2)C[C@@H]1C [Example 7-2] | A (A represents a pEC50 value between 6 and 8 (EC50 between 1 μM and 10 nM))
4 | CNC(=O)N1C[C@@H](C)N(c2ccc(C(=O)Nc3cc(OC(F)(F)F)c(-c4ccc(-c5c[nH]c([C@@H]6C[C@H](C)CN6C(=O)[C@@H](NC(=O)OC)C6CC6)n5)cc4)cc3Cl)cn2)C[C@@H]1C [Example 7-3] | D (D represents pEC50>10 (EC50<0.1 nM))
5 | CCCCOC(=O)N[C@H](C(=O)N1C[C@@H](C)C[C@H]1c1nc(-c2ccc(-c3cc(Cl)c(NC(=O)c4ccc(N5C[C@H](C)N(C(=O)NC)C[C@H]5C)nc4)cc3OC(F)(F)F)cc2)c[nH]1)C(C)C [Example 7-4] | B (B represents pEC50 between 8 and 9 (EC50 between 1 and 10 nM))
6 | CNC(=O)N1C[C@@H](C)N(c2ccc(C(=O)Nc3cc(OC(F)(F)F)c(-c4ccc(-c5c[nH]c([C@@H]6C[C@H](C)CN6C(=O)[C@@H](NC(=O)OC(C)C)C(C)C)n5)cc4)cc3Cl)cn2)C[C@@H]1C [Example 7-5] | B (B represents pEC50 between 8 and 9 (EC50 between 1 and 10 nM))

Same assay, conditions: Hepatitis C virus, read-out: Genotype 1a, HCV genotype 1a replicon

Row | Structure (SMILES) | EC50
7 | COC(=O)N[C@H](C(=O)N1CC2(C[C@H]1c1nc(-c3ccc(-c4ccc(NC(=O)c5ccc(N6CCN(C(=O)[C@]7(C)CCCN7C(=O)[C@@H](NC(=O)OC)C(C)C)C[C@H]6C)nc5)cc4OC(F)(F)F)cc3)c[nH]1)OCCO2)C(C)C [Example 5-1] | < 0.1 nM
8 | COCC(=O)N1CCC[C@@]1(C)C(=O)N1CCN(c2ccc(C(=O)Nc3ccc(-c4ccc(-c5c[nH]c([C@@H]6CC7(CN6C(=O)[C@@H](NC(=O)OC)C(C)C)OCCO7)n5)cc4)c(OC(F)(F)F)c3)cn2)[C@H](C)C1 [Example 5-2] | < 0.1 nM
9 | COC(=O)N[C@H](C(=O)N1C[C@H](N2Cc3ccccc3C2)C[C@H]1c1nc(-c2ccc(-c3cc(Cl)c(NC(=O)c4ccc(N5CCN(C(=O)C(C)(C)C)C[C@H]5C)nc4)cc3OC(F)(F)F)cc2)c[nH]1)C(C)C [Example 5-10] | 10 to 1000 nM
10 | COC(=O)N[C@H](C(=O)N1CC2(C[C@H]1c1nc(-c3ccc(-c4cc(Cl)c(NC(=O)c5ccc(N6CCN(C(=O)C(C)(C)C)C[C@H]6C)nc5)cc4OC(F)(F)F)cc3)c[nH]1)OCCO2)C(C)C [Example 5-11] | < 0.1 nM
11 | COC(=O)N[C@H](C(=O)N1C[C@@H](C)C[C@H]1c1nc(-c2ccc(-c3cc(Cl)c(NC(=O)c4ccc(N5CCN(C(=O)C(C)(C)C)C[C@H]5C)nc4)cc3OC(F)(F)F)cc2)c(CO)[nH]1)C(C)C [Example 5-12] | < 0.1 nM
12 | COC(=O)N[C@H](C(=O)N1C[C@@H](C)C[C@H]1c1nc(-c2ccc(-c3cc(Cl)c(NC(=O)c4ccc(N5CCN(C(=O)C(C)(C)CO)C[C@H]5C)nc4)cc3OC(F)(F)F)cc2)c(CO)[nH]1)C(C)C [Example 5-13] | < 0.1 nM
13 | COC(=O)N[C@H](C(=O)N1C[C@@H](C)C[C@H]1c1nc(-c2ccc(-c3cc(Cl)c(NC(=O)c4ccc(N5CCN(C(=O)C(C)(C)C)C[C@H]5C)nc4)c(Cl)c3OC(F)(F)F)cc2)c[nH]1)C(C)C [Example 5-14] | 0.1 to 1 nM
14 | COC[C@H]1C[C@@H](c2nc(-c3ccc(-c4cc(Cl)c(NC(=O)c5ccc(N6CCN(C(=O)C(C)(C)C)C[C@H]6C)nc5)cc4OC(F)(F)F)cc3)c[nH]2)N(C(=O)[C@@H](NC(=O)OC)C2CCOCC2)C1 [Example 5-15] | < 0.1 nM
15 | COC(=O)N[C@H](C(=O)N1C[C@@H](OC)C[C@H]1c1nc(-c2ccc(-c3cc(F)c(NC(=O)c4ccc(N5CCN(C(=O)C(C)(C)C)[C@@H](CO)C5)nc4)cc3OC(F)(F)F)cc2)c[nH]1)C1CCOCC1 [Example 5-16] | < 0.1 nM
16 | COC(=O)N[C@H](C(=O)N1C[C@@H](OC)C[C@H]1c1nc(-c2ccc(-c3cc(Cl)c(NC(=O)c4ccc(N5CCN(C(=O)C(C)(C)CO)C[C@H]5C)nc4)cc3OC(F)(F)F)cc2)c(CO)[nH]1)C(C)C [Example 5-17] | < 0.1 nM
17 | COC(=O)N[C@H](C(=O)N1C[C@H](OC)C[C@H]1c1nc(-c2ccc(-c3cc(Cl)c(NC(=O)c4ccc(N5CCN(C(=O)C(C)(C)C)C[C@H]5C)nc4)cc3OC(F)(F)F)cc2)c[nH]1)C(C)C [Example 5-19] | < 0.1 nM
18 | COC(=O)N[C@H](C(=O)N1C[C@H](OC)C[C@H]1c1nc(-c2ccc(-c3cc(Cl)c(NC(=O)c4ccc(N5CCN(C(=O)C(C)(C)C)C[C@H]5C)nc4)cc3OC(F)(F)F)cc2)c[nH]1)C1CCOCC1 [Example 5-20] | < 0.1 nM
19 | COC(=O)N[C@H](C(=O)N1C[C@@H](N(C)C)C[C@H]1c1nc(-c2ccc(-c3ccc(C(=O)Nc4ccc(N5CCN(C(=O)[C@]6(C)CCCN6C(=O)[C@@H](NC(=O)OC)C(C)C)C[C@H]5C)nc4)cc3)cc2)c[nH]1)C(C)C [Example 6-3] | 0.1 to 1 nM
20 | COC(=O)N[C@H](C(=O)N1C[C@@H](N)C[C@H]1c1nc(-c2ccc(-c3ccc(C(=O)Nc4ccc(N5CCN(C(=O)C6CC6(C)C)C[C@H]5C)nc4)cc3)cc2)c[nH]1)C(C)C (stereo partly drawn) [Example 6-4] | 10 to 1000 nM
21 | COC(=O)N[C@H](C(=O)N1CC(C)(C)C[C@H]1c1nc(-c2ccc(-c3ccc(C(=O)Nc4ccc(N5CCN(C(=O)[C@]6(C)CCCN6C(=O)[C@@H](NC(=O)OC)C(C)C)C[C@H]5C)nc4)cc3OC(F)(F)F)cc2)c[nH]1)C(C)C [Example 6-6] | 0.1 to 1 nM
22 | COCC(=O)N1CCC[C@@]1(C)C(=O)N1CCN(c2ccc(NC(=O)c3ccc(-c4ccc(-c5c[nH]c([C@@H]6CC(C)(C)CN6C(=O)[C@@H](NC(=O)OC)C(C)C)n5)cc4)c(OC(F)(F)F)c3)cn2)[C@H](C)C1 [Example 6-7] | < 0.1 nM
23 | COC(=O)N[C@H](C(=O)N1CC(C)(C)C[C@H]1c1nc(-c2ccc(-c3ccc(C(=O)Nc4ccc(N5CCN(C(=O)C6CC6(C)C)C[C@H]5C)nc4)cc3OC(F)(F)F)cc2)c[nH]1)C(C)C (stereo partly drawn) [Example 6-8] | 0.1 to 1 nM
24 | COCC(=O)N1CCC[C@@]1(C)C(=O)N1CCN(c2ccc(NC(=O)c3ccc(-c4ccc(-c5c[nH]c([C@@H]6C[C@@H]7CCCC[C@@H]7N6C(=O)[C@@H](NC(=O)OC)C(C)C)n5)cc4)c(OC(F)(F)F)c3)cn2)[C@H](C)C1 [Example 6-13] | < 0.1 nM
25 | COC(=O)N[C@H](C(=O)N1[C@H](c2nc(-c3ccc(-c4ccc(C(=O)Nc5ccc(N6CCN(C(=O)[C@]7(C)CCCN7C(=O)[C@@H](NC(=O)OC)C(C)C)C[C@H]6C)nc5)cc4OC(F)(F)F)cc3)c[nH]2)C[C@@H]2CCCC[C@@H]21)C(C)C [Example 6-14] | < 0.1 nM
26 | COC(=O)N[C@H](C(=O)N1C[C@@H](SC)C[C@H]1c1nc(-c2ccc(-c3ccc(C(=O)Nc4ccc(N5CCN(C(=O)C(C)(C)C)C[C@H]5C)nc4)cc3OC(F)(F)F)cc2)c[nH]1)C(C)C [Example 6-15] | 0.1 to 1 nM
27 | COC(=O)N[C@H](C(=O)N1[C@H](c2nc(-c3ccc(-c4ccc(C(=O)Nc5ccc(N6CCN(C(=O)[C@]7(C)C[C@@H](O)CN7C(=O)OC(C)(C)C)C[C@H]6C)nc5)cc4OC(F)(F)F)cc3)c[nH]2)C[C@@H]2CCCC[C@@H]21)C(C)C [Example 6-16] | 1 to 10 nM
28 | [2H]C([2H])([2H])C1(C([2H])([2H])[2H])CC1C(=O)N1CCN(c2ccc(NC(=O)c3ccc(-c4ccc(-c5nc([C@@H]6C[C@H](N(C)C)CN6C(=O)[C@@H](NC(=O)OC)C(C)C)[nH]c5Cl)cc4)c(OC(F)(F)F)c3)cn2)[C@H](C)C1 (stereo partly drawn) [Example 6-17] | < 0.1 nM
29 | COC(=O)N[C@H](C(=O)N1C[C@@H]([S+](C)[O-])C[C@H]1c1nc(-c2ccc(-c3ccc(C(=O)Nc4ccc(N5CCN(C(=O)C6CC6(C)C)C[C@H]5C)nc4)cc3OC(F)(F)F)cc2)c[nH]1)C(C)C (stereo partly drawn) [Example 6-18] | 0.1 to 1 nM
30 | COC(=O)N[C@H](C(=O)N1C[C@@H]([S+](C)[O-])C[C@H]1c1nc(-c2ccc(-c3ccc(C(=O)Nc4ccc(N5CCN(C(=O)C(C)(C)C)C[C@H]5C)nc4)cc3OC(F)(F)F)cc2)c[nH]1)C(C)C (stereo partly drawn) [Example 6-19] | 0.1 to 1 nM
31 | [2H]C([2H])([2H])C1(C([2H])([2H])[2H])C[C@@H]1C(=O)N1CCN(c2ccc(NC(=O)c3ccc(-c4ccc(-c5c[nH]c([C@@H]6C[C@H]([S+](C)[O-])CN6C(=O)[C@@H](NC(=O)OC)C(C)C)n5)cc4)c(OC(F)(F)F)c3)cn2)[C@H](C)C1 (stereo partly drawn) [Example 6-20] | 1 to 10 nM
32 | COC(=O)N[C@H](C(=O)N1C[C@@H](S(C)(=O)=O)C[C@H]1c1nc(-c2ccc(-c3ccc(C(=O)Nc4ccc(N5CCN(C(=O)[C@H]6CC6(C)C)C[C@H]5C)nc4)cc3OC(F)(F)F)cc2)c[nH]1)C(C)C [Example 6-21] | 0.1 to 1 nM
33 | COC(=O)N[C@H](C(=O)N1C[C@@H](S(C)(=O)=O)C[C@H]1c1nc(-c2ccc(-c3ccc(C(=O)Nc4ccc(N5CCN(C(=O)C(C)(C)C)C[C@H]5C)nc4)cc3OC(F)(F)F)cc2)c[nH]1)C(C)C [Example 6-22] | 1 to 10 nM
34 | COC(=O)N[C@H](C(=O)N1CC(C)(C)C[C@H]1c1nc(-c2ccc(-c3ccc(C(=O)Nc4ccc(N5CCN(C(=O)C(C)(C)C)C[C@H]5C)nc4)cc3OC(F)(F)F)cc2)c[nH]1)C(C)C [Example 6-23] | 1 to 10 nM
35 | COC(=O)N[C@H](C(=O)N1C[C@H](C)C[C@H]1c1nc(-c2ccc(-c3cc(Cl)c(C(=O)Nc4ccc(N5CCN(C(=O)C(C)(C)C)C[C@H]5C)nc4)cc3OC(F)(F)F)cc2)c[nH]1)C(C)C [Example 6-26] | 1 to 10 nM
36 | CCO[C@H]1C[C@@H](c2nc(-c3ccc(-c4cc(Cl)c(C(=O)Nc5ccc(N6CCN(C(=O)C(C)(C)C)C[C@H]6C)nc5)cc4OC(F)(F)F)cc3)c[nH]2)N(C(=O)[C@@H](NC(=O)OC)C(C)C)C1 [Example 6-27] | 0.1 to 1 nM
